From ChEMBL document CHEMBL4742399, “New compounds for use as a therapeutically active substance and in particular for use in the treatment of tumors” (2019)
Active and inactive are the calls of the source. The rule behind the calls is not given here.

Columns and labels:
[1] = biological target: T1, Dual specificity tyrosine-phosphorylation-regulated kinase 1B (Homo sapiens, UniProt Q9Y463); assay: Inhibition of GST-tagged DYRK1B (unknown origin) incubated for 30 mins using DYRKtide by ADP-Glo assay
Target sequence in this assay (Q9Y463 whole entry): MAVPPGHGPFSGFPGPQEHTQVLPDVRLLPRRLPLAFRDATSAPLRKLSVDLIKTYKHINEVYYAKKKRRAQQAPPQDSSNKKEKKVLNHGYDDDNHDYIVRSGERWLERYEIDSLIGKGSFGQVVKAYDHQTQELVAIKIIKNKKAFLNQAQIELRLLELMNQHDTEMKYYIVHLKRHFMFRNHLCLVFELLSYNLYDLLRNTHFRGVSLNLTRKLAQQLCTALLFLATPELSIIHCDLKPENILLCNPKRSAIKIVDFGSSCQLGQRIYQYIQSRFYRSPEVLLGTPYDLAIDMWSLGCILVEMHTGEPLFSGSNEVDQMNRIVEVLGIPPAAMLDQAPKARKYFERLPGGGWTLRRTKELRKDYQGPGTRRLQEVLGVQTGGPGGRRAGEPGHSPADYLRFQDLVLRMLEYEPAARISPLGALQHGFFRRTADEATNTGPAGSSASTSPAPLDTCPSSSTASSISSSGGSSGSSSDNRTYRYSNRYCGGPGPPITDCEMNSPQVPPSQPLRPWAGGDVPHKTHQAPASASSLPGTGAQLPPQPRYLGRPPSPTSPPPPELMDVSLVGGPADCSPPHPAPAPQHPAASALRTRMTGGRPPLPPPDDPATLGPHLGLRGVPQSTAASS

HT-29 [2] = assay: Cytotoxicity against human HT-29 multicellular tumor spheroid cells at 5 uM incubated for 48 hrs by Hoechst and SYTOX staining based assay; format: functional, cell-based
HT-29 [3] = assay: Cytotoxicity against human HT-29 multicellular tumor spheroid cells at 0.15 to 20 uM incubated for 48 hrs by Hoechst and SYTOX staining based assay; format: functional, cell-based; conditions: dose 0.15-20 µM
HT-29 [4] = assay: Cytotoxicity against human HT-29 multicellular tumor spheroid cells at 5 uM incubated for 48 hrs under hypoxic conditions by Hoechst and SYTOX staining based assay; format: functional, cell-based
[5] = biological target: T1, Dual specificity tyrosine-phosphorylation-regulated kinase 1B; assay: Inhibition of GST-tagged DYRK1B (unknown origin) assessed as reduction p27 Ser10 phosphorylation at 0.1 to 10 uM; conditions: dose 0.1-10 µM
Target sequence in this assay (Q9Y463 whole entry, looked up): as the sequence (Q9Y463 whole entry) above

[6] = biological target: T1, Dual specificity tyrosine-phosphorylation-regulated kinase 1B; assay: Inhibition of DYRK1B un human HT-29 cells assessed as reduction p27 Ser10 phosphorylation at 2.5 to 10 uM; format: cell-based; conditions: dose 2.5-10 µM
Target sequence in this assay (Q9Y463 whole entry, looked up): as the sequence (Q9Y463 whole entry) above

| IC50 [1] [µM] | inhibition [5] | inhibition [6] | Structure (SMILES) | Activity (HT-29 [2]) | Activity (HT-29 [3]) | Activity (HT-29 [4]) |
| --- | --- | --- | --- | --- | --- | --- |
| 3 |  |  | COc1ccccc1-n1cc(-c2ccnc(NCc3c(C)n[nH]c3C)n2)cn1 |  |  |  |
| 4 | Active | Active | Fc1ccccc1-n1cc(-c2ccnc(NCc3ccncc3)n2)cn1 | Active | Active | Active |
| 2 |  |  | Fc1ccccc1-n1cc(-c2ccnc(NC3CCOCC3)n2)cn1 |  |  |  |
| 3 |  |  | CCNc1nccc(-c2cnn(-c3ccccc3F)c2)n1 |  |  |  |
